Consider 3 compounds from patent publication US4178450A, “2,5-Dimethyl-benzo(b) thiene (3,2-f) morphan and precursor thereof” (priority 1977, dated 1979).

Usually LD50 stands for the dose expected to kill half of the subjects tested. Low values mean a more toxic substance, high ones a less toxic substance.

The nature of data set [1]: Acute toxicity (LD50, Litchfield-Wilcoxon test, intraperitoneal). The arrangement: species or system I.C.R. Swiss albino mice. As to conditions: mouse, in vivo, ip, mice, deaths noted 48 hours after treatment. How it is done:
A--ACUTE TOXICITY Acute toxicity studies have been made in I.C.R. Swiss albino mice of both sexes of a weight of 30±2 g, kept without food for 24 hours prior to the experiment. Ambient temperature and relative humidity were held constant. The products were administered intraperitoneally, with the number of deaths noted 48 hours from the moment of treatment. Calculation of the lethal dose 50 (LD50) was made by the Litchfield-Wilcoxon test.

In data set [2] the test system is I.C.R. Swiss albino mice. The data set is described as follows: Chemical analgesia, acetic acid writhing technique. Type of data set: in vivo. As to conditions: for No. of writhes: 30 min before acetic acid, noted 20 min after, x ± S.E.M.; for analgesic activity compared with dextropropoxyphene (in words): acetic acid writhing, i.p. Here is the method:
2. Chemical analgesia The analgesic effect has been studied in I.C.R. Swiss albino mice, employing the acetic acid writhing technique. Batches of 10 mice were made.
The products studied were administered intraperitoneally, and after 30 minutes the mice were injected intraperitoneally with 0.25 ml of 1% acetic acid. A batch of control animals received only the acetic acid. Note was made of the number of writhes in each mouse 20 minutes following injection of the acetic acid.
(An intraperitoneal irritant provokes the stretching counted in writhing tests.)

In data set [3] the test system is I.C.R. Swiss albino mice. As to the kind of experiment: Thermal analgesia, 55° C. "hot plate" technique. It is filed as in vivo. As to conditions: for Jumping time: 30 min before 55° C. hot plate, x ± S.E.M.; for thermal analgesic activity (in words): hot plate, i.p. How it is done:
The thermal analgesic effect has been studied in I.C.R. Swiss albino mice. The 55° C. "hot plate" technique was used. Batches of 10 mice were made. The products in study were administered intraperitoneally and after 30 minutes the mice were placed on the hot plate and note was made, in seconds, of the time it took them to jump. Batches were made of control animals injected only with distilled water.

Setting [4] is: 30 mg/kg i.p., control 122.1 ± 9.15.
The mark [5] stands for this setting: 25 mg/kg i.p., control 30.9 ± 5.016.
Setting [6] is: 25 mg/kg i.p., control 109.9 ± 6.362.
Setting [7] is: 50 mg/kg i.p., control 48.8 ± 5.033.

In the case of `CN1CCC2(C)CC1Cc1sc3ccccc3c12` (racemic) [Product I, 2,5-dimethyl-benzo[b]thiene[3,2-f]morphan], the LD50 at 48 h in data set [1] stood at 90.8 mg/kg. In data set [2] (setting [4]), this compound showed a No. of writhes of 44.3 ± 6.14. The “analgesic activity compared with dextropropoxyphene (in words)” value in data set [2] is listed as “has analgesic activity, but of lesser intensity than that of dextropropoxyphene”. The compound also displayed a Jumping time in data set [3] (setting [5]) of 48.9 ± 8.956 s. The “thermal analgesic activity (in words)” value in data set [3] is listed as “lacks any thermal analgesic activity”.

Take `CCC(=O)O[C@](Cc1ccccc1)(c1ccccc1)[C@H](C)CN(C)C` [Dextropropoxyphene, dextropropoxyphene, reference compound]: the No. of writhes is on record as 27.8 ± 8.365 in data set [2] (setting [6]) and 24 ± 6.03 in data set [2] (setting [4]). The Jumping time in data set [3] (setting [5]) stood at 70.8 ± 13.592 s; in data set [3] (setting [7]) it was 91.3 ± 7.894 s.

Take `CC1=CCN(C)C(Cc2cc3ccccc3s2)C1` (centres unmarked) [Product II, 2-(2-benzo[b]thienylmethyl)-1,4-dimethyl-1,2,3,6-tetrahydropyridine]: the LD50 at 48 h in data set [1] was 916 mg/kg. Moreover, the No. of writhes in data set [2] (setting [6]) is 41.2 ± 6.024. Further, the “analgesic activity compared with dextropropoxyphene (in words)” value in data set [2] is recorded as “not significantly different from that of dextropropoxyphene”. Further, in data set [3] (setting [7]), the Jumping time stood at 63 ± 8.368 s. Further, the “thermal analgesic activity (in words)” value in data set [3] is reported as “lacks any thermal analgesic activity”.
